{"source": "patent US20260263471A1", "about": "“Methods of Treating Myelofibrosis” (Kartos Therapeutics, Inc., priority 2024, published 2026)", "key": {"[1]": {"tested_on": "subjects with MF who were relapsed or refractory to JAK inhibitor treatment", "assay": "KRT-232-101A Phase 2 open-label dose-finding study, navtemadlin monotherapy", "type": "in vivo, human", "conditions": "for TSS50 at Week 24 by MFSAF v4.0 (proportion of subjects) / SVR35 at Week 24 by Central Review (proportion of subjects): Rux-relapsed/refractory MF; for TSS50 at Week 24 by MFSAF v4.0 (proportion of subjects): n = 14; for SVR35 at Week 24 by Central Review (proportion of subjects): n = 14 with ruxolitinib washout ≥28 days; for circulating CD34+ cells: single agent", "procedure": "KRT-232-101A is a Phase 2 open-label, dose-finding study designed to evaluate the safety and efficacy of navtemadlin in subjects with MF who were relapsed or refractory to JAK inhibitor treatment. Subjects were treated with one of four dosing schedules to determine the optimal Phase 2 dose and schedule: navtemadlin 120 mg QD for Days 1-7 on a […]; navtemadlin 240 mg QD for Days 1-7 on a 21-day cycle; navtemadlin 240 mg QD for Days 1-7 on a 28-day cycle; or navtemadlin 240 mg QD for Days 1-5 on a 28-day cycle.\nFourteen (14) of these subjects had ruxolitinib washout of ≥28 days prior to the baseline imaging assessment; efficacy results are reported for this subset of patients to control for the effects on the spleen after ruxolitinib discontinuation prior to Cycle 1 Day 1. Median treatment duration for all 32 subjects was 175.5 days (range, 2-469)."}, "[2]": {"tested_on": "treatment-naïve patients with MF", "assay": "KRT-232-114 Phase 2 open-label study, navtemadlin monotherapy", "type": "in vivo, human", "conditions": "Rux-naïve MF, 240 mg Days 1-7 of 28-day cycle", "procedure": "KRT-232-114 was a Phase 2 open-label study in which the safety and efficacy of navtemadlin monotherapy was assessed in treatment-naïve patients with MF. […] Median treatment duration was 183.0 days (range, 7-539)."}, "p21": {"tested_on": "p21", "assay": "p21 expression in MF patient cells", "type": "cell-based, human", "conditions": "single agent alone"}, "p21 mRNA": {"tested_on": "p21 mRNA", "assay": "p53 pathway activation, non-clinical pharmacology", "conditions": "direct transcriptional target of p53", "text": "(§1) Preclinical studies conducted with navtemadlin have yielded promising results in in vitro, ex vivo, and in vivo experiments, representing solid tumors and hematologic malignancies, including MF and acute myeloid leukemia secondary to an MPN."}, "[3]": {"assay": "Standard panel of assays: mutagenicity, genotoxicity, phototoxicity", "text": "Repeat-dose toxicity studies of up to 13 weeks duration in rats and monkeys, along with in vitro and in vivo safety pharmacology studies, have been completed for navtemadlin. […] Nonclinical embryofetal toxicity and fertility studies have not been conducted for navtemadlin due to the well documented requirement for p53/MDM2 control during embryonic and fetal development. Based on its mechanism of action, navtemadlin alters cell proliferation and is expected to result in adverse effects on embryofetal viability and development."}, "[4]": {"tested_on": "xenograft models, tumor types harboring TP53WT", "assay": "Non-clinical xenograft models", "type": "in vivo", "conditions": "various genetic backgrounds", "text": "as §1"}, "[5]": {"tested_on": "ruxolitinib-treated patients with myelofibrosis", "conditions": "cited from earlier work"}, "[6]": {"tested_on": "patients who discontinue ruxolitinib", "conditions": "after discontinuing ruxolitinib; 95% CI 8.0-22.7; cited from earlier work"}, "[7]": {"tested_on": "JAKi-naive MF patients with a suboptimal response to ruxolitinib", "assay": "Pooled published phase 3 data, suboptimal responders to ruxolitinib", "type": "in vivo, human", "text": "Data was pooled from published phase 3 studies for patients treated with ruxolitinib in the JAKi-naive MF setting (Verstovsek 2012; Mesa 2017; Pemmaraju 2023; Rampal 2023) to understand the natural history of patients with MF who achieve a suboptimal response to ruxolitinib, as defined in Study KRT-232-115 (e.g., a subject with an SVR>0% but <35% and a TSS reduction >0% but <50%) (FIG. 12).\nFIG. 12 illustrates suboptimal spleen and symptom responders from the pooled phase 3 ruxolitinib data, including patients treated with ruxolitinib monotherapy with and without placebo. SVR data was obtained for 465 subjects from the three studies COMFORT-1, […]-1, and TRANSFORM-1 (Verstovsek 2012; Mesa 2017; Pemmaraju 2023). TSS data was obtained for 528 subjects from the three studies. Week-24 data used as a proxy to Week-18 suboptimal response assessment."}, "MF patients": {"tested_on": "MF patients", "conditions": "cited from earlier work"}, "[8]": {"conditions": "KRT-232-101A, 240 mg Days 1-7 of 28-day cycle"}, "[9]": {"conditions": "KRT-232-101A, 240 mg Days 1-7 of 28-day cycle, listed as Navtemadlin"}, "[10]": {"conditions": "within the first 1-2 years of treatment"}}, "note": "Entries after “also recorded” stand apart in the source; their conditions may differ. Like-named read-outs stand apart in the source and are kept apart here."}
{"smiles": "CC(C)[C@@H](CS(=O)(=O)C(C)C)N1C(=O)[C@@](C)(CC(=O)O)C[C@H](c2cccc(Cl)c2)[C@H]1c1ccc(Cl)cc1", "note": "[navtemadlin, 2-((3R,5R,6S)-5-(3-chlorophenyl)-6-(4-chlorophenyl)-1-((S)-1-(isopropylsulfonyl)-3-methylbutan-2-yl)-3-methyl-2-oxopiperidin-3-yl) acetic acid]", "values": [{"measurement": "TSS50 at Week 24 by MFSAF v4.0 (proportion of subjects)", "setting": "[1]; [8]", "result": 14.3, "unit": "%"}, {"measurement": "TSS50 at Week 24 by MFSAF v4.0 (proportion of subjects)", "setting": "[1]; [9]", "result": "14.3% (2/14)"}, {"measurement": "SVR35 at Week 24 by Central Review (proportion of subjects)", "setting": "[1]; [8]", "result": 14.3, "unit": "%"}, {"measurement": "SVR35 at Week 24 by Central Review (proportion of subjects)", "setting": "[1]; [9]", "result": "14.3% (2/14)"}, {"measurement": "median reduction in circulating CD34+ cells", "setting": "[1]; baseline Cycle 1 Day 1 to Week 24, 240 mg Days 1-7 of 28-day cycle", "result": 89.02, "unit": "%"}, {"measurement": "subjects with improvement in fibrosis grade", "setting": "[1]; baseline to Week 24, all evaluable subjects (12/44)", "result": 27.3, "unit": "%"}, {"measurement": "driver gene VAF", "setting": "[1]; pharmacodynamic analysis, KRT-232-101A", "result": "VAF reductions"}, {"measurement": "circulating CD34+ cells", "setting": "[1]; KRT-232-101A", "result": "robustly decreased; also recorded: reduced"}, {"measurement": "circulating CD34+ cells", "setting": "[1]; KRT-232-101A, listed as Navtemadlin", "result": "decreased"}, {"measurement": "SVR35 at Week 24 by Central Review (proportion of subjects)", "setting": "[2]; n = 14", "result": 14.3, "unit": "%"}, {"measurement": "TSS50 at Week 24 by MFSAF v4.0 (proportion of subjects)", "setting": "[2]; n = 14", "result": 28.6, "unit": "%"}, {"measurement": "SVR35 at Week 24 by Central Review (proportion of subjects)", "setting": "[2]; n = 14, listed as Navtemadlin", "result": "14.3% (2/14)"}, {"measurement": "TSS50 at Week 24 by MFSAF v4.0 (proportion of subjects)", "setting": "[2]; n = 14, listed as Navtemadlin", "result": "28.6% (4/14)"}, {"measurement": "p21 expression", "setting": "p21", "result": "markedly increased"}, {"measurement": "p21 mRNA", "setting": "p21 mRNA", "result": "increases"}, {"measurement": "mutagenicity / genotoxicity", "setting": "[3]", "result": "not mutagenic or genotoxic"}, {"measurement": "potential for phototoxicity", "setting": "[3]", "result": "negligible potential"}, {"measurement": "tumor growth", "setting": "[4]", "result": "dose-dependent reduction"}]}
{"smiles": "N#CC[C@H](C1CCCC1)n1cc(-c2ncnc3[nH]ccc23)cn1", "note": "[ruxolitinib, (R)-3-(4-(7H-pyrrolo[2,3-d]pyrimidin-4-yl)-1H-pyrazol-1-yl)-3-cyclopentylpropanenitrile]", "values": [{"measurement": "hazard ratio for survival", "setting": "[5]; patients with SVR≥25% to <35% versus SVR<10%, 95% CI 0.11-0.61", "result": 0.25}, {"measurement": "reduction in risk of death", "setting": "[5]; patients with SVR≥25% to <35% versus SVR<10%", "result": 75, "unit": "%"}, {"measurement": "hazard ratio for survival", "setting": "[5]; patients with SVR≥35% to <50%, 95% CI 0.11-0.56", "result": 0.24}, {"measurement": "p21 expression", "setting": "p21", "result": "did not"}, {"measurement": "median OS", "setting": "[6]", "result": 13.2, "unit": "months"}, {"measurement": "mean SVR", "setting": "[7]; suboptimal spleen responders, N=253, Week-24 data as proxy for Week 18", "result": 18, "unit": "%"}, {"measurement": "mean TSS reduction", "setting": "[7]; suboptimal symptom responders (>0% but <50%)", "result": 28.5, "unit": "%"}, {"measurement": "time after initiating treatment by which benefit in SVR and TSS reduction is achieved, then plateau", "setting": "MF patients; Verstovsek 2012", "result": "≤ 12", "unit": "weeks"}, {"measurement": "MF patients with TSS reduction of greater than or equal to 50%", "setting": "MF patients; ruxolitinib monotherapy", "result": "approximately 46%"}, {"measurement": "responding patients achieving both SVR ≥35% and TSS ≥50%", "setting": "MF patients; ruxolitinib monotherapy", "result": "20-25%"}, {"measurement": "effect on bone marrow fibrosis", "setting": "MF patients; [10]", "result": "does not significantly affect"}, {"measurement": "effect on variant allele frequency (VAF) of driver mutations", "setting": "MF patients; [10]", "result": "does not significantly affect"}]}
